Holding throughout (type): nucleic-acid assay
In experiment [1] the test system is Nucleic Acid. The experiment can be described thus: The compound was tested for its binding affinity to Poly (dG-dC) by using ethidium displacement assay.
Experiment [2] concerns Nucleic Acid. The experiment can be described thus: The compound was tested for its binding affinity to Poly (dA-dT) by using ethidium displacement assay.
In experiment [3] the test system is Nucleic Acid. Kind of experiment: The compound was tested for its binding affinity to T4 ethidium displacement assay.
Experiment [4] concerns Nucleic Acid. Kind of experiment: The compound was tested for its binding affinity to calf thymus DNA by using ethidium displacement assay. Conditions: Bos taurus.

We go through seven molecules from ChEMBL document CHEMBL1130447, “Two-ring DNA minor-groove binders consisting of readily available, di-substituted benzene derivatives” (Bioorg Med Chem Lett, 1997).

For `CN(C)CCCNC(=O)c1ccc(C(=O)Nc2cccc(NC(=O)CCCN(C)C)c2)cc1`, the C50 in experiment [1] came out at 142 µM; in experiment [2] it was 1.9 µM; in experiment [3], 27.1 µM; in experiment [4] it was 31.9 µM.

`C[n+]1ccc(Nc2ccc(NC(=O)c3ccc(Nc4cc[n+](C)c5ccccc45)cc3)cc2)cc1`: the C50 in experiment [1] stood at 2.8 µM; in experiment [2] it was 0.17 µM.

On to `CN(C)CCCNC(=O)c1cccc(C(=O)Nc2ccc(NC(=O)CCCN(C)C)cc2)c1`, for which the C50 in experiment [1] amounted to 55.6 µM; in experiment [2] it was 28.4 µM; in experiment [3] it was 35.6 µM; in experiment [4], 47.3 µM.

As for `N=C(N)c1ccc(/N=N/Nc2ccc(C(=N)N)cc2)cc1`, the C50 worked out at 5.7 µM in experiment [1] and 0.9 µM in experiment [2].

Consider `CN(C)CCCNC(=O)Nc1ccc(NC(=O)c2ccc(C(=O)NCCCN(C)C)cc2)cc1`, for which the C50 in experiment [1] was determined as 77.3 µM; in experiment [2], 23.5 µM; in experiment [3], 35.2 µM; in experiment [4], 44.8 µM.

Take `CN1CCN(c2ccc3[nH]c(-c4ccc5[nH]c(-c6ccc(O)cc6)nc5c4)nc3c2)CC1`: the C50 in experiment [1] came out at 1.4 µM; in experiment [2] it was 0.2 µM.

For the molecule `CN(C)CCCNC(=O)Nc1cccc(NC(=O)c2ccc(C(=O)NCCCN(C)C)cc2)c1`, the C50 in experiment [1] was 222 µM; in experiment [2] it was 4.2 µM; in experiment [3] it was 28.6 µM; in experiment [4], 43.5 µM.
